SMILES strings stand for the structures.

For experiment [1], the system named is HSP70. Kind of experiment: HSP70 protein boosting in HL-1 cardiomyocytes after mild heat shock (Western blot). The format is cell-based, mouse. Particulars: for induction of mammalian HSP70 protein expression: HL-1, mild heat shock, 10 μM, 6 hours; for HSP boosting HL-1 cardiomyocytes Protein HSP70: mild heat shock 44°C 10 min, then compound 10 μM for 6 hours, Western blot. In outline:
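Mouse atrial HL-1 myocytes given mild heat shock (44° C., 10 min), recovered 10 min at 37° C., then exposed to compound at 10 μM final (0.1% DMSO) for 6 h. HSP70 in RIPA lysates measured by Western blot, ECL detection and densitometry.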

For experiment [2], the system named is HSP70. The experiment is described as follows: HSP70 mRNA (qPCR) in HL-1 cardiomyocytes after mild heat shock. The format is cell-based, mouse. The conditions noted are these: then compound 10 μM for 6 hours. The protocol: (§1) HL-1 cardiomyocytes were subjected to a mild heat shock of 44° C. for 10 minutes. After a recovery of 10 minutes (37 degrees 5% CO2), compounds were added in a final concentration of 10 μM (dissolved in DMSO, final concentration 0.1%). To control myocytes, 0.1% DMSO was added. After six hours the cells were lysed in RIPA buffer and used for Western blotting as described previously.^3, 10 Compounds were also screened for their ability to upregulate HSP gene expression. Hereto, HL-1 cardiomyocytes were first subjected to a mild heat shock which activates the Heat Shock Factor. After the mild heat shock, compound (10 μM) was added to the medium of HL-1 cardiomyocytes for 6 hours, followed by determination of HSP70, HSP25, HSP90 and HSP40 which are targets of the heat shock factor 1 (HSF1) transcription factor. In addition, we determined mRNA levels of the gene encoding the glucose-responsive protein 78 (Grp78) which is HSF1-independent.
In general terms: In qPCR the cycle at which signal appears reflects the starting amount.

The subject of a further experiment is HSP25. The experiment is described as follows: HSP25 mRNA (qPCR) in HL-1 cardiomyocytes after mild heat shock. Set-up: key: 0 = no induction HSP levels; + = 2-10-fold induction; ++ = 10-30-fold induction; +++ = > 30-fold induction. It is filed as cell-based, mouse. Particulars: then compound 10 μM for 6 hours. The protocol: as §1
The next experiment has as its system HSP90. The experiment is described as follows: HSP90 mRNA (qPCR) in HL-1 cardiomyocytes after mild heat shock. It is filed as cell-based, mouse. The conditions noted are these: then compound 10 μM for 6 hours. As for the experimental part:
as §1

Another experiment deals with HSP40. Kind of experiment: HSP40 mRNA (qPCR) in HL-1 cardiomyocytes after mild heat shock. The format is cell-based, mouse. The conditions noted are these: then compound 10 μM for 6 hours. As for the experimental part:
as §1

For experiment [3], the system named is glucose-responsive protein 78 (Grp78). The experiment is described as follows: Grp78 mRNA (qPCR, HSF1-independent) in HL-1 cardiomyocytes. It is filed as cell-based, mouse. The arrangement: key to HSP boosting HL-1 cardiomyocytes mRNA (qPCR) Grp78 Not HSF1: 0 = no induction HSP levels; + = 2-10-fold induction; ++ = 10-30-fold induction; +++ = > 30-fold induction. Particulars: for upregulation of Grp78 mRNA: HL-1, mild heat shock, 10 μM, 6 hours; for HSP boosting HL-1 cardiomyocytes mRNA (qPCR) Grp78 Not HSF1: mild heat shock, then compound 10 μM for 6 hours. As for the experimental part:
as §1

The test system of experiment [4] is MCF-7 breast cancer cells. Kind of experiment: MCF-7 cell death, ratio death/living cells (trypan blue). Particulars: 100 μM; 16-20 hours; trypan blue. The format is cell-based, human. The arrangement: key to Cell Death MCF-7 cancer cells Death/living 100 μM: 0 = no dead cells; + = P < 0.05; ++ = P < 0.01; +++ = P < 0.001.
The next experiment deals with HSP27. Kind of experiment: HSP27 Western blot in MCF-7 cells. The conditions noted are these: MCF-7 lysate, 16-20 hours. It is filed as cell-based, human. Set-up: key: + = P < 0.05; ++ = P < 0.01; +++ = P < 0.001. The procedure, abridged: (§2)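 MCF-7 cells in DMEM/10% FCS exposed to test compounds at final concentration 10 for 16-20 h; dead/living ratio by trypan blue. RIPA lysates, equal protein, run on 10% SDS gels and immunoblotted; ECL detection with densitometric quantification, GAPDH also probed.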
Background: Immunoblotting shows a protein as a band on a membrane.

Experiment [5] has as its system HSP70. The experiment is described as follows: HSP70 Western blot in MCF-7 cells. The format is cell-based, human. Set-up: key: + = P < 0.05; ++ = P < 0.01; +++ = P < 0.001. Particulars: MCF-7 lysate, 16-20 hours. In outline: as §2
In another experiment the test system is PARP. The experiment is described as follows: PARP cleavage in MCF-7 cells (Western blot). The format is cell-based, human. Set-up: key to Cell Death MCF-7 cancer cells PARP: 0 = no dead cells; + = P < 0.05; ++ = P < 0.01; +++ = P < 0.001. The conditions noted are these: MCF-7 lysate, Western blot, 16-20 hours. In outline:
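MCF-7 cells in DMEM/10% FCS exposed to 10 μM compound for 16-20 h; dead versus living cells counted by trypan blue. Lysates in RIPA analysed by Western blot for PARP (plus HSPs, GAPDH), ECL detection with densitometric quantification.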

In experiment [6] the test system is HSP70. Kind of experiment: Hsp70 induction in murine proximal tubule (MPT) cells (Western blot). The conditions noted are these: 40 μM, 5 hours, outperformed positive control GGA. It is filed as cell-based. As for the experimental part: Murine proximal tubule (MPT) cells were isolated and cultured as described previously (Borkan et al. Heat stress ameliorates ATP depletion-induced sublethal injury in mouse proximal tubule cells. Am. J. Physiol. 1997; F347-55).
The MPT cells were exposed to 40 μM of compound for 5 hours, after which the cells were harvested in RIPA buffer followed by Western blotting.
For Western-blot analysis, equal amount of protein in SDS-PAGE sample buffer was separated on 10% PAA-SDS gels. After transfer to nitrocellulose membranes (Stratagene, USA), membranes were incubated with primary antibodies against HSP70 (Enzo C92F3A/StressGen SP810) or beta-actin (Sigma A541). Horseradish peroxidase-conjugated anti-mouse or anti-sheep (Jackson ImmunoRes) was used as secondary antibody. Signals were detected by the ECL-detection method (Amersham).

The subject of experiment [7] is HSP70, HSP25, HSP90 and HSP40. Kind of experiment: Upregulation of HSP gene expression (HSF1 targets) in HL-1 cardiomyocytes. The format is cell-based, mouse. Particulars: HL-1, mild heat shock, 10 μM, 6 hours. As for the experimental part:
as §1

As to `CC(C)=CCC/C(C)=C/CNS(C)(=O)=O` [Compound 51, (E)-N-(3,7-Dimethylocta-2,6-dien-1-yl)methanesulfonamide], the “induction of mammalian HSP70 protein expression” value in the experiment with HSP70 [1] is “potent inducers”. Besides, in the experiment on HSP70 [2], the “HSP boosting HL-1 cardiomyocytes mRNA (qPCR) HSP 70” value was “+ (+ = 2-10-fold induction)”. Besides, the “HSP boosting HL-1 cardiomyocytes mRNA (qPCR) HSP 25” value in the experiment on HSP25 is listed as “+ (+ = 2-10-fold induction)”. Besides, in the experiment with HSP90, the “HSP boosting HL-1 cardiomyocytes mRNA (qPCR) HSP 90” value is on record as “+ (+ = 2-10-fold induction)”. In addition, the “HSP boosting HL-1 cardiomyocytes mRNA (qPCR) HSP 40” value in the experiment on HSP40 is reported as “+ (+ = 2-10-fold induction)”. For the same molecule, in experiment [3], the “upregulation of Grp78 mRNA” value was “no upregulation” and the “HSP boosting HL-1 cardiomyocytes mRNA (qPCR) Grp78 Not HSF1” value is recorded as 0. The “Cell Death MCF-7 cancer cells Death/living 100 μM” value in [4] came out at 0. The “Cell Death MCF-7 cancer cells HSP 27” value with HSP27 is on record as “++ (++ = P < 0.01)”. In addition, the “Cell Death MCF-7 cancer cells HSP 70” value with HSP70 [5] was “+ (+ = P < 0.05)”. Moreover, the “Cell Death MCF-7 cancer cells PARP” value in the experiment with PARP is 0. Moreover, in the experiment on HSP70 [6], the “induction of HSP70 expression in renal (MPT) cells” value (from here on “induction of HSP70 expression”) is listed as “strong inducers”. Moreover, the “induction of HSP gene expression” value in experiment [7] was “strong inducers”.

Consider `CCOC(=O)C(C/C=C(\C)CCC=C(C)C)C(=O)c1ccccc1O` (stereo not shown) [Compound 61, (E)-Ethyl 2-(2-hydroxybenzoyl)-5,9-dimethyldeca-4,8-dienoate], for which, in the experiment with HSP70 [1], the “induction of mammalian HSP70 protein expression” value is listed as “potent inducers” and the “HSP boosting HL-1 cardiomyocytes Protein HSP70” value was “++ (++ = 10-30-fold induction)”. Besides, the “HSP boosting HL-1 cardiomyocytes mRNA (qPCR) HSP 70” value with HSP70 [2] is given as “+ (+ = 2-10-fold induction)”. Besides, the “HSP boosting HL-1 cardiomyocytes mRNA (qPCR) HSP 25” value with HSP25 was “+ (+ = 2-10-fold induction)”. Further, in the experiment on HSP90, the “HSP boosting HL-1 cardiomyocytes mRNA (qPCR) HSP 90” value was “+ (+ = 2-10-fold induction)”. The “HSP boosting HL-1 cardiomyocytes mRNA (qPCR) HSP 40” value in the experiment on HSP40 is “+ (+ = 2-10-fold induction)”. Also, in experiment [3], the “upregulation of Grp78 mRNA” value was “no upregulation” and the “HSP boosting HL-1 cardiomyocytes mRNA (qPCR) Grp78 Not HSF1” value is 0. In addition, in experiment [4], the “Cell Death MCF-7 cancer cells Death/living 100 μM” value came out at 0. For the same molecule, the “Cell Death MCF-7 cancer cells HSP 27” value in the experiment on HSP27 came out at 0. For the same molecule, the “Cell Death MCF-7 cancer cells HSP 70” value in the experiment with HSP70 [5] turned out to be 0. The “Cell Death MCF-7 cancer cells PARP” value with PARP is on record as 0. For the same molecule, the “induction of HSP70 expression” value in the experiment on HSP70 [6] is on record as “strong inducers”. Further, the “induction of HSP gene expression” value in experiment [7] is “strong inducers”.

Regarding `CC(C)=CCC/C(C)=C/CCc1cc(O)n[nH]1` [Compound 62, (E)-5-(4,8-dimethylnona-3,7-dien-1-yl)-1H-pyrazol-3-ol], in the experiment with HSP70 [1], the “induction of mammalian HSP70 protein expression” value is reported as “potent inducers” and the “HSP boosting HL-1 cardiomyocytes Protein HSP70” value is reported as “++ (++ = 10-30-fold induction)”. Besides, the “HSP boosting HL-1 cardiomyocytes mRNA (qPCR) HSP 70” value with HSP70 [2] is “+ (+ = 2-10-fold induction)”. In addition, the “HSP boosting HL-1 cardiomyocytes mRNA (qPCR) HSP 25” value in the experiment with HSP25 was 0. Besides, the “HSP boosting HL-1 cardiomyocytes mRNA (qPCR) HSP 90” value with HSP90 is “+ (+ = 2-10-fold induction)”. Moreover, the “HSP boosting HL-1 cardiomyocytes mRNA (qPCR) HSP 40” value with HSP40 was “+ (+ = 2-10-fold induction)”. In addition, in experiment [3], the “upregulation of Grp78 mRNA” value is given as “no upregulation” and the “HSP boosting HL-1 cardiomyocytes mRNA (qPCR) Grp78 Not HSF1” value amounted to 0. In addition, the “induction of HSP70 expression” value with HSP70 [6] is recorded as “strong inducers”. The “induction of HSP gene expression” value in [7] is “strong inducers”.

For the origin of these results see US9688651B2, “Geranyl geranyl acetone analogs and uses thereof” (NYKEN Holding B.V., priority 2012, dated 2017).
